From patent publication US11214803B2, “Modulators of YAP1 expression” (Ionis Pharmaceuticals, Inc., priority 2019, dated 2022)
Marks after values point to notes of the source that are not given here. Strand notation (5' to 3'): a small letter for the sugar, then the base; units joined by * are phosphorothioate-linked, units joined directly phosphodiester-linked; [ ] holds rarer units or linkages, { } end groups; capitals alone tell only the bases. k = constrained ethyl (cEt); [5mC] = 5-methylcytosine; d = 2'-deoxy (DNA)

Experiments:
Yap1 mRNA [1] = assay: Dose-dependent inhibition of human Yap1 in A-431 cells (Example 7, 10,000 cells per well, RTS36584); format: cell-based; details: free uptake
Summary of the method: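 A-431 cells at 10,000 per well received modified oligonucleotides by free uptake at several doses. After about 48 hours, Yap1 mRNA was quantified with primer-probe set RTS36584, normalized to RIBOGREEN total RNA and expressed as % untreated control. IC50 came from linear regression on a log/linear plot.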

[2] = rat, in vivo, sc, 50 mg/kg
Description: Male Sprague-Dawley rats were maintained on a 12-hour light/dark cycle and fed ad libitum with Purina normal rat chow. Groups of 4 Sprague-Dawley rats each were weekly injected subcutaneously with 50 mg/kg of Ionis oligonucleotide for 6 weeks (total 7 doses). Forty-eight hours after the last dose, the rats were euthanized; and organs, urine and plasma were harvested for further analysis.
To evaluate the effect of Ionis oligonucleotides on kidney function, urinary levels of total protein and creatinine were measured using an automated clinical chemistry analyzer (Hitachi Olympus AU400c, Melville, N.Y.).

[3] = Tolerability in Sprague-Dawley rats, plasma chemistry markers (Example 21); format: in vivo; details: male Sprague-Dawley rats, 50 mg/kg s.c. weekly for 6 weeks (7 doses), 48 hours after last dose
Description: Sprague-Dawley rats are a multipurpose model used for safety and efficacy evaluations. The rats were treated with Ionis modified oligonucleotides from the studies described in the Examples above and evaluated for changes in the levels of various plasma chemistry markers.

ERK1/2 = assay: Measurement of ERK activation (pERK/ERK) in SNU449 xenograft model with sorafenib (second Example 30); format: in vivo, human; details: SNU449 xenograft tumors, pERK/ERK relative to PBS control, oligonucleotide 50 mg/kg, sorafenib 30 mg/kg orally
Description: (§1) Five million SNU449 cells in 30% matrigel were implanted subcutaneously into the fatpads of female NOD.Cg-Prkdcscid II2rgtmlWjl/SzJ mice (from Jackson Laboratory) at 4-6 weeks of age. 43 days post implantation (when tumors had reached approximately 100 mm^3 in size), groups of eight mice each were administered with 50 mg/kg modified oligonucleotide daily for 10 days (loading dose), following which they were administered with 50 mg/kg modified oligonucleotide four times a week for one week, following which they were dosed with 50 mg/kg modified oligonucleotide thrice weekly until the end of the study.
Protein analysis was carried out using standard procedures. […] ERK protein levels were compared to internal control GAPDH. […] The secondary antibody used was donkey anti-rabbit NA934, GE Healthcare. pERK/ERK levels were calculated relative to PBS control to determine % activation of ERK1/2.

[4] = Tolerability in Sprague-Dawley rats, body and organ weights (Example 21); format: in vivo; details: male Sprague-Dawley rats, 50 mg/kg s.c. weekly for 6 weeks (7 doses); for Kidney weight / Liver weight / Spleen weight: end of study; for body weight: terminal, prior to necropsy
Description: Terminal body weight was measured prior to necropsy. Ionis oligonucleotides that caused any changes in organ weights outside the expected range for modified oligonucleotides were excluded from further studies.

Yap1 mRNA [5] = assay: Yap1 mRNA levels in SNU449 xenograft tumors, alone and in combination with sorafenib (second Example 30); format: in vivo, human; details: SNU449 xenograft mice, oligonucleotide 50 mg/kg, sorafenib 30 mg/kg orally, tumors collected day 119 post implantation, relative to PBS
Description: Modified oligonucleotides described in the studies above were tested in a hepatocellular carcinoma SNU449 xenograft tumor model. In addition to testing the modified oligonucleotide by itself, combination therapy with sorafenib was also tested. A control oligonucleotide 792169, described herein above, was also tested.
as §1, with “study. […] Animals were sacrificed, and tumors were collected on day 119 post implantation.” for “study.”
Yap1 mRNA knockdown in tumors was measured by RT-qPCR as previously described using the Human Yap1 primer-probe set RTS4814. Yap1 mRNA levels were normalized to actin-beta content, as measured by primer probe set RTS5002. Results are presented in the tables below as percent control of the amount of Yap1 mRNA relative to PBS treated animals (% control).

Yap1 mRNA [6] = assay: Antisense inhibition of human Yap1 in A-431 cells by cEt gapmers, single dose (Example 3, RTS36584); format: cell-based
Summary of the method: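 A-431 cells (5,000/well) took up the 3-10-3 cEt gapmers by free uptake at 2,000 nM for about 48 h. Yap1 mRNA was measured by RT-qPCR with primer probe set RTS36584, normalized to RiboGreen total RNA, and given as % of untreated control.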

715487 (kA*kT*kT*dA*d[5mC]*dT*dT*d[5mC]*dA*dT*dA*dG*d[5mC]*kT*kT*kA) [compound 715487]
Yap1 mRNA, % UTC (Yap1 mRNA [1]; 15.6 nM, A-431 cells, 10,000 cells per well, approximately 48 hours): 77 % UTC | Yap1 mRNA, % UTC (Yap1 mRNA [1]; 62.5 nM, A-431 cells, 10,000 cells per well, approximately 48 hours): 44 % UTC | Yap1 mRNA, % UTC (Yap1 mRNA [1]; 4000.00 nM, A-431 cells, 10,000 cells per well, approximately 48 hours): 4 % UTC | IC50 (Yap1 mRNA [1]; A-431 cells, approximately 48 hours, linear regression on log/linear plot): 100 nM

1076453 (GTAATATTGCAATCTG; 3-10-3 cEt gapmer, further chemistry not given here) [compound 1076453]
URINE P/C ratio (total protein to creatinine ratio) [2]: 5

1198440 (AAGTGTATGTCAGAAG; cEt, 2'-MOE, 5-methylcytosine, phosphorothioate modifications, further chemistry not given here) [compound 1198440]
ALT [3]: 58** U/L | AST [3]: 108** U/L | BUN [3]: 20** mg/dL | TBIL [3]: 0.17** mg/dL | % activation of ERK1/2 (ERK1/2): 88% | Kidney weight [4]: 3.29 g | Liver weight [4]: 18 g | Spleen weight [4]: 2.78 g | body weight [4]: 373 g | Yap1 mRNA levels in tumors (Yap1 mRNA [5]): 34 % control

CGCCGATAAGGTACAC (cEt gapmer, phosphorothioate backbone, further chemistry not given here) [ION 792169, reference compound]
% activation of ERK1/2 (ERK1/2): 100% | Yap1 mRNA levels in tumors (Yap1 mRNA [5]): 90 % control

1198439 (AGTGTATGTCAGAAGA; sugar, 5-methylcytosine, phosphorothioate modifications, further chemistry not given here) [compound 1198439]
ALT [3]: 54* U/L | AST [3]: 94* U/L | BUN [3]: 22* mg/dL | TBIL [3]: 0.15* mg/dL | Kidney weight [4]: 3.68* g | Liver weight [4]: 17* g | Spleen weight [4]: 2.28* g | body weight [4]: 319* g

958499 (kA*kT*kT*dA*dG*dA*dG*dT*dA*dT*dG*dT*dG*kG*k[5mC]*kA) [Compound 958499]
YAP1 (% UTC) (Yap1 mRNA [6]; Table 12, A-431 cells, 5,000 cells per well, free uptake, 2,000 nM modified oligonucleotide, approx. 48 hours, RTS36584, normalized to RIBOGREEN, Yap1 mRNA relative to untreated control cells): 1 % UTC

958499 (ATTAGAGTATGTGGCA; 3-10-3 cEt gapmer, further chemistry not given here) [compound 958499]
URINE P/C ratio (total protein to creatinine ratio) [2]: 5 | Yap1 mRNA, % UTC (Yap1 mRNA [1]; Table 61, 15.6 nM, A-431 cells 10,000 cells per well, 48 hours): 54 % UTC | Yap1 mRNA, % UTC (Yap1 mRNA [1]; Table 61, 62.5 nM, A-431 cells 10,000 cells per well, 48 hours): 12 % UTC | Yap1 mRNA, % UTC (Yap1 mRNA [1]; Table 61, 4000.00 nM, A-431 cells 10,000 cells per well, 48 hours): 1 % UTC | IC50 (Yap1 mRNA [1]; Table 61, A-431 cells 10,000 cells per well): < 10 nM | YAP1 (% UTC) (Yap1 mRNA [6]; Table 26, Yap1 mRNA by 3-10-3 cEt gapmers targeting SEQ ID NO.: 1, and 2, percent of untreated control): 1 % UTC | YAP1 (% UTC) (Yap1 mRNA [6]; Table 27, Yap1 mRNA by 3-10-3 cEt gapmers targeting SEQ ID NO.: 1, and 2, percent of untreated control): 2 % UTC | YAP1 (% UTC) (Yap1 mRNA [6]; Table 28, Yap1 mRNA as percent of untreated control, 3-10-3 cEt gapmers targeting SEQ ID NO.: 1, and 2): 2 % UTC | YAP1 (% UTC) (Yap1 mRNA [6]; Table 29, Yap1 mRNA as percent of untreated control, 3-10-3 cEt gapmers targeting SEQ ID NO.: 1, and 2): 2 % UTC | YAP1 (% UTC) (Yap1 mRNA [6]; Table 34, Yap1 mRNA as percent of untreated control, 3-10-3 cEt gapmers targeting SEQ ID NO: 1 and 2, single dose): 1 % UTC | YAP1 (% UTC) (Yap1 mRNA [6]; Table 35, Yap1 mRNA as percent of untreated control, 3-10-3 cEt gapmers targeting SEQ ID NO: 1 and 2, single dose): 2 % UTC
